In US20130237582A1, “PHARMACEUTICAL COMBINATION OF PACLITAXEL AND A CDK INHIBITOR” (Piramal Enterprises Limited, priority 2010, published 2013):

Key:
MDA-MB-468 = assay: Cell cycle progression and apoptosis by flow cytometry (sub-G1); assay type: cell-based, human
Procedure: Before analysis, cells were washed twice with PBS to remove the fixative and re-suspended in PBS containing 50 μg/mL propidium iodide and 50 μg/mL RNaseA. After incubation at room temperature (20-35° C.) for 20 min, cells were analyzed using flow cytometry. A Becton Dickinson FACS Calibur flow cytometer (BD, USA) was used for these studies. The argon ion laser set at 488 nm was used as an excitation source. Cells with DNA content between 2n and 4n were designated as being in G1, S and G2/M phases of the cell cycle, as defined by the level of red fluorescence. […] The number of cells in each cell cycle compartment was expressed as a percentage of the total number of cells present. The results are shown in Table 3 and graphically presented in FIG. 3A (MCF-7 cell lines) and FIG. 3B (MDA-MB-231 cell lines).
Comparison of the effect of Compound A and PARP inhibitor BSI-201 (Iniparib developed by Sanofi-Aventis. BSI-201 is prepared in-house) on cell cycle progression and apoptosis was evaluated in two TNBC cell lines. The asynchronous human TNBC cell lines MDA-MB-231 and MDA-MB-468 were seeded in […] tissue culture flask at a density of 0.5×10^6 cells per flask in RPMI 1460 with 10% FCS. After 24 h, cells were treated either with 1.5 and 3.0 μM of Compound A or 50 μM of PARP inhibitor BSI-201 for 72 h. After the incubation cells were harvested (trypsinised) and processed as given in example 6.

Bcl-2 = assay: Western blot analysis in MCF-7 cells; assay type: cell-based, human; settings: 1.5 and 4.5 μM, 6, 24 and 30 h
Procedure: The Western blot assay was carried out according to the procedure disclosed in Molecular Cancer Therapeutics, 2007, 6, 918-925 with some modifications.
MCF-7 and MDA-MB-231 cells were seeded in RPMI 1460 medium with 10% FCS in […] tissue culture flask and incubated for 24 h. The cells were treated with Compound A at 1.5 and 4.5 μM. At various time points, i.e. 6, 24 and 30 h the cells were harvested or trypsinized and lysed using lysis buffer (Sigma Aldrich, USA). Protein content was estimated. Lysate was applied to Sodium Dodecyl Sulphate-Polyacrylamide Gel Electrophoresis (SDS-PAGE) followed by western blotting (Molecular Cancer Therapeutics, 2007, 6, 918-925). Western blotting was done using specific antibodies to Bcl-2 and actin. The results are depicted in FIG. 4.

[1] = biological target: T1, CDK4-D1 (Cyclin D1 and CDK4) (Homo sapiens, UniProt P11802); assay: CDK4 kinase activity after immunoprecipitation from MCF-7 cells; assay type: cell-based; settings: synchronized MCF-7; 1.5 μM; 3, 6, 9 and 12 h
T1 construct: endogenous in cells; host or cells: MCF-7 (serum-starved, synchronized)
Procedure: For immunoprecipitation assay, the MCF-7 cells were synchronized by serum starvation. These cells were treated with Compound A at 1.5 μM at various time points viz. 3 h, 6 h, 9 h and 12 h. Cells were harvested (trypsinised) and lysed using lysis buffer, and protein content was estimated. CDK4-D1 (Cyclin D1 and CDK4) was purified from the lysate by immunoprecipitation using specific antibody to CDK4. Immune complex was further purified using Protein A sepharose beads (Sigma Aldrich, USA). Immune complex was used to determine CDK4 activity using pRb as a substrate and ^32P labelled ATP (BRIT, India). Reaction mixed was applied to SDS-PAGE followed by transfer and autoradiography.

PARP = biological target: T2, PARP (Homo sapiens, UniProt P09874); assay: PARP enzyme activity measured by PAR polymers (Western blot), MDA-MB-231; assay type: cell-based; settings: 1.5 μM and 5 μM, 24 h
T2 construct: endogenous in cells; host or cells: MDA-MB-231; MDA-MB-468
Procedure: To study PARP enzyme activity, PAR polymer formation was measured. MDA-MB-231 and MDA-MB-468 cells were seeded in RPMI 1460 medium with 10% FCS in […] tissue culture flask and incubated for 24 h. These cells were treated at 1.5 μM and 5 μM of Compound A for 24 h. The cells were harvested (trypsinised) and lysed using lysis buffer. Western blotting (Molecular Cancer Therapeutics, 2007, 6, 918-925) was done with specific antibody to PAR.
Correlation of PARP activity and cell cycle proteins cyclin D1, total Rb and pRb 780 were studied in two TNBC cell lines viz. MDA-MB-468 and MDA-MB-231. MDA-MB-231 and MDA-MB-468 cells were seeded in RPMI 1460 medium with 10% FCS in […] tissue culture flask and incubated for 24 h. These cells were treated at 1.5 μM and 5 μM Compound A for 24 h. The cells were harvested (trypsinised) and lysed using lysis buffer. Western blotting was carried out (Molecular Cancer […], 2007, 6, 918-925) using specific antibody to PAR, PARP, cyclin D1, CDK4 and pRb Ser 780.

[2] = system: MCF-7, BT-549 and MDA-MB-231 cell lines; assay: Wound healing assay (cell migration); assay type: cell-based, human; settings: 1 μM and 3 μM; 24 h
Procedure: The wound-healing assay is simple, inexpensive, and one of the earliest developed methods to study directional cell migration in vitro. This method mimics cell migration during wound healing in vivo.
Protocol: • 1. MCF-7 cells were seeded in RPMI 1460 medium with 10% FCS in […] tissue culture flask and incubated for 24 h. • 2. The cells were trypsinized and seeded at a density of (0.5−2.0)×10^6 per well in a sterile 6 well plate. • 3. The plate was incubated for about 16 h in humidified CO2 incubator (5% CO2) at 37° C. under ambient oxygen levels. […] The required number of cells for a confluent monolayer depends on both the particular cell type and size of dishes. • 4. The cell monolayer in a straight line was scraped evenly to create a “scratch” with a pipette tip. The first image of the scratches was captured before addition of the compound. • 5. Compound A was added at concentrations of 1 μM and 3 μM. • 6. The plates were then kept in the incubator for further incubation. The time frame for incubation was determined empirically for the particular cell type used. • 7. After the incubation, the dish was placed under a phase contrast microscope (Zeiss Axio Observer, Germany), reference point was matched, the photographed regions of the first image were aligned and the second image was captured. For each image distances between one side of the scratch and the other were measured. […]

T1 sequence (P11802 2-303 limits assumed): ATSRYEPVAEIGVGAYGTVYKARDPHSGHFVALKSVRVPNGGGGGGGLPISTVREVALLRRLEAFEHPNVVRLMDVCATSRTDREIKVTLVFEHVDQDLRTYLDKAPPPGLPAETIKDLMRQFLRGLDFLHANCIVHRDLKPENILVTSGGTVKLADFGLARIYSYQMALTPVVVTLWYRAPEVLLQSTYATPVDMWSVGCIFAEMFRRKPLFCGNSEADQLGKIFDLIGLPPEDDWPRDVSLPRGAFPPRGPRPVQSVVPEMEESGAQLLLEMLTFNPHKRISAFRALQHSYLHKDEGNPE
T1 sequence (P24385 whole entry partner): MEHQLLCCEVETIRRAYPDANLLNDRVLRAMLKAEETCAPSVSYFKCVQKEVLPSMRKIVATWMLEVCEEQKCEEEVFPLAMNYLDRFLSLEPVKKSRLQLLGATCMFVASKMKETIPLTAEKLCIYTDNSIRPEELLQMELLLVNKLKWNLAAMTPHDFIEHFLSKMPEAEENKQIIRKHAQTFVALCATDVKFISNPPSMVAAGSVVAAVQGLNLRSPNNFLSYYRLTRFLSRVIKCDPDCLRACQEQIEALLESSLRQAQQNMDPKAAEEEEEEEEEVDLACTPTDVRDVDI
T2 sequence (P09874 2-1014 limits assumed): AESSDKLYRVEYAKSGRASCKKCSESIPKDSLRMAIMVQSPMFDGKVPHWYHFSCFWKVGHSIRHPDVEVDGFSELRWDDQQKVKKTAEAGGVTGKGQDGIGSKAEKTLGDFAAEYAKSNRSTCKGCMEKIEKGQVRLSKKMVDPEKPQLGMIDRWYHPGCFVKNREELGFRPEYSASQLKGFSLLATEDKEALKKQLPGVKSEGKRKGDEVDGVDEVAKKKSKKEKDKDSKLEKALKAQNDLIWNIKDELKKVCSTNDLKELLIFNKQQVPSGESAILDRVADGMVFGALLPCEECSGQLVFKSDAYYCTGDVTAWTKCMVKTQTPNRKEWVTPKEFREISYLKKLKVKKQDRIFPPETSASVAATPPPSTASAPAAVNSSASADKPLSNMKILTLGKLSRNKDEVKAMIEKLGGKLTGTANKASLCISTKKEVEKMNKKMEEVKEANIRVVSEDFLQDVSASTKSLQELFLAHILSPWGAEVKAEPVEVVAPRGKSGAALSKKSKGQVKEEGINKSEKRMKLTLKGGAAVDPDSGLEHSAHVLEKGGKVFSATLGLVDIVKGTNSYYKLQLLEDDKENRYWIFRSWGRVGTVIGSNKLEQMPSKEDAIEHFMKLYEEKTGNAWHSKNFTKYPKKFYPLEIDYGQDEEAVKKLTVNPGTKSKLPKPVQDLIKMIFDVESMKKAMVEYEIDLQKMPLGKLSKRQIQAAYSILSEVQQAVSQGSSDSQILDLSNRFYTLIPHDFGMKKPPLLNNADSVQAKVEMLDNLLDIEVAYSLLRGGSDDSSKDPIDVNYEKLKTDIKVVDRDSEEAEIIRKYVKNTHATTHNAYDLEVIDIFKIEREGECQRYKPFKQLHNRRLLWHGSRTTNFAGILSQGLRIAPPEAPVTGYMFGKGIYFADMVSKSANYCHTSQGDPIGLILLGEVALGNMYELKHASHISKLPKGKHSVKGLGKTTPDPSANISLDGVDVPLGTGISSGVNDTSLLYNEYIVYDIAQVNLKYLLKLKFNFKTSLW

PARP enzyme activity (PAR polymer formation) (PARP): inhibits PARP enzyme activity
Structure (SMILES): CN1CC[C@@H](c2c(O)cc(O)c3c(=O)cc(-c4ccccc4Cl)oc23)[C@@H]1CO.Cl [Compound A, (+)-trans-2-(2-Chloro-phenyl)-5,7-dihydroxy-8-(2-hydroxymethyl-1-methyl-pyrrolidin-3-yl)-chromen-4-one hydrochloride]
% apoptosis at 72 h (MDA-MB-468; 1.5 μM): 36.09%
% apoptosis at 72 h (MDA-MB-468; 3 μM): 62.5%
expression of antiapoptotic protein Bcl-2 (Bcl-2): significantly down regulated from 24 h onwards
CDK4 kinase activity [1]: Decrease in CDK4 kinase activity in cell-based assay was seen as early as 3 h onwards
cell migration (wound healing) [2]: potent anti migratory effect
